# How the values were obtained:
# Human recombinant HDAC1 = target: T1, Human recombinant HDAC1 (Homo sapiens, UniProt Q13547); assay: HDAC enzyme activity test, HDAC1; assay type: biochemical; conditions: Table 12; read-out: Inhibition ability (IC50) HDAC1
# T1 construct: purchased Enzo Life Science Co. (named for the kit; assigned to the enzyme from the BML- catalogue prefix) BML-SE456
# Protocol: (§1) Then, 0.3 μg of enzyme and 10 μM of substrate per well were added, reacted at 30° C. for 60 minutes. Thereto, Fluor de Lys® Developer II (BML-KI176) was added and reacted for 30 minutes. […] From the data, the respective IC50 were calculated by GraphPad Prism 4.0 program.
# human recombinant HDAC6 = target: T2, human recombinant HDAC6 (Homo sapiens, UniProt Q9UBN7); assay: HDAC enzyme activity test, HDAC6; assay type: biochemical; conditions: Table 12; for Selectivity for HDAC6, HD1/HD6: ratio HDAC1 IC50 / HDAC6 IC50; for IC50: read-out: Inhibition ability (IC50) HDAC6
# T2 construct: purchased Calibiochem Co. (so in the source) 382180
# T2 sequence (Q9UBN7 1-1215): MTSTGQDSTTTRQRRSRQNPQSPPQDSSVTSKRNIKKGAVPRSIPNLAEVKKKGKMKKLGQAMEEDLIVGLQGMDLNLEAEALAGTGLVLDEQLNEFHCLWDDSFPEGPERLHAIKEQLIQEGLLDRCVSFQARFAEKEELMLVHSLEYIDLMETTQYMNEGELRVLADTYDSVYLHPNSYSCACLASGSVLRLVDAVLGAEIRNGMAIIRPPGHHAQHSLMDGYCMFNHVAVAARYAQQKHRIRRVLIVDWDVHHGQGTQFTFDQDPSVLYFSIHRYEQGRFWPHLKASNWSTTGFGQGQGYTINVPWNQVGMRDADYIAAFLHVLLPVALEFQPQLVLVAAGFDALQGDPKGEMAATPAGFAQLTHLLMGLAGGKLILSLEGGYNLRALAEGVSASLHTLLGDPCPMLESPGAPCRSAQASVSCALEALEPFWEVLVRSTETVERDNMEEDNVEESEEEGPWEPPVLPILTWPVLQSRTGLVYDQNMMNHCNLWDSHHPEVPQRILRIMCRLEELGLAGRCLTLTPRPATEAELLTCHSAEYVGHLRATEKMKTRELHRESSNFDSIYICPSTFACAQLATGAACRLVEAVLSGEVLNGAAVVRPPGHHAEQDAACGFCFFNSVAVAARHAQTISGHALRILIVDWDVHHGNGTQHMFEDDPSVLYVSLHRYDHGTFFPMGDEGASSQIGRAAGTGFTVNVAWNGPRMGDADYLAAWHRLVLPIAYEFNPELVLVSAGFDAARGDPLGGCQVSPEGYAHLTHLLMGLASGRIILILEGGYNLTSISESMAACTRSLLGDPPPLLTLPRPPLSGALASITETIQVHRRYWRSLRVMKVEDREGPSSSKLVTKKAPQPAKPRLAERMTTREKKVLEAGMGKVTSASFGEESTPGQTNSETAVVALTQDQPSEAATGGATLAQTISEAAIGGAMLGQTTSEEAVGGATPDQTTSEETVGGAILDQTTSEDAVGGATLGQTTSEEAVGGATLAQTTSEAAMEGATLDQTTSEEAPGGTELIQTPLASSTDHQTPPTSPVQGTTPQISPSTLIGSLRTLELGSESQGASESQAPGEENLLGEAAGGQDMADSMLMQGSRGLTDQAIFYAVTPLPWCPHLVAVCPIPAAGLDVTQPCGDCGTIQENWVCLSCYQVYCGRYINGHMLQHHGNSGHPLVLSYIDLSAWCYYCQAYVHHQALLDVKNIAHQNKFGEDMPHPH
# Protocol: as §1
# T1 sequence (Q13547 whole entry): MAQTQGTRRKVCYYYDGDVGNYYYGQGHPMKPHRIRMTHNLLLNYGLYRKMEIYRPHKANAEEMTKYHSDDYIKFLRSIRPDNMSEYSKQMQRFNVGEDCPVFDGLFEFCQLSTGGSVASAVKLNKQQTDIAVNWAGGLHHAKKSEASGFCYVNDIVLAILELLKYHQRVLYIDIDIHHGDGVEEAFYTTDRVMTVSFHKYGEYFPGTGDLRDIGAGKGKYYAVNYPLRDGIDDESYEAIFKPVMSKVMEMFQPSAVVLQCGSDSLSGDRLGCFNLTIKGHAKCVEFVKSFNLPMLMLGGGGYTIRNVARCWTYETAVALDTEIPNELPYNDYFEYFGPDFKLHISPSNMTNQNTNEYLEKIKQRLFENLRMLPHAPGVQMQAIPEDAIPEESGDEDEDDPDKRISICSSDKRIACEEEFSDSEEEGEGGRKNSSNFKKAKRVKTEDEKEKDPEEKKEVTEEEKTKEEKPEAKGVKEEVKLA
SMILES,IC50 (Human recombinant HDAC1),"Selectivity for HDAC6, HD1/HD6 (human recombinant HDAC6)",IC50 (human recombinant HDAC6)
"CC1(C)CC(=O)c2c(n(CCCCCC(=O)NO)c3ccccc23)C1 [Compound 18, 6-(2,2-dimethyl-4-oxo-1,2,3,4-tetrahydrocarbazol-9-yl)-N-hydroxyhexanamide]",1320 nM,18.5,71.4 nM
"CC1(C)CC(=O)c2c(n(CCCCCCC(=O)NO)c3ccccc23)C1 [Compound 20, 7-(2,2-dimethyl-4-oxo-1,2,3,4-tetrahydrocarbazol-9-yl)-N-hydroxyheptanamide]",125 nM,16.8,7.44 nM
"CC1(C)CC(=O)c2c(n(CCCCCC(=O)NO)c3ccc(Br)cc23)C1 [Compound 40, 6-(6-bromo-2,2-dimethyl-4-oxo-1,2,3,4-tetrahydrocarbazol-9-yl)-N-hydroxyhexanamide]",8880 nM,75.5,117 nM
"CC1(C)CC(=O)c2c(n(CCCCCC(=O)NO)c3cc(Br)ccc23)C1 [Compound 41, 6-(7-bromo-2,2-dimethyl-4-oxo-1,2,3,4-tetrahydrocarbazol-9-yl)-N-hydroxyhexanamide]",98.8 nM,50.7,1.95 nM
"CC1(C)CC(=O)c2c(n(Cc3ccc(C(=O)NO)cc3)c3ccc(Br)cc23)C1 [Compound 45, 4-((6-bromo-2,2-dimethyl-4-oxo-1,2,3,4-tetrahydrocarbazol-9-yl)methyl)-N-hydroxybenzamide]",5480 nM,42.1,130 nM
"CC1(C)CC(=O)c2c(n(CCCCCC(=O)NO)c3c(Br)cccc23)C1 [Compound 46, 6-(1-bromo-7,7-dimethyl-5-oxo-5,6,7,8-tetrahydrocarbazol-9-yl)-N-hydroxyhexanamide]",2070 nM,8.2,253 nM
"CC1(C)CC(=O)c2c(n(CCCCCC(=O)NO)c3c(Cl)cc(Cl)cc23)C1 [Compound 47, 6-(1,3-dichloro-7,7-dimethyl-5-oxo-5,6,7,8-tetrahydrocarbazol-9-yl)-N-hydroxyhexanamide]",2910 nM,6.9,421 nM
"CC1(C)CC(=O)c2c(n(CCCCCC(=O)NO)c3c(Cl)ccc(Cl)c23)C1 [Compound 48, 6-(1,4-dichloro-7,7-dimethyl-5-oxo-5,6,7,8-tetrahydrocarbazol-9-yl)-N-hydroxyhexanamide]",4370 nM,30.1,145 nM
"CC1(C)CC(=O)c2c(n(Cc3ccc(C(=O)NO)cc3)c3c(Cl)ccc(Cl)c23)C1 [Compound 49, 4-((1,4-dichloro-7,7-dimethyl-5-oxo-5,6,7,8-tetrahydrocarbazol-9-yl)methyl)-N-hydroxybenzamide]",13500 nM,144.8,93 nM
"CC1(C)CC(=O)c2c(n(CCCCCCC(=O)NO)c3ccc(Br)cc23)C1 [Compound 50, 7-(6-bromo-2,2-dimethyl-4-oxo-1,2,3,4-tetrahydrocarbazol-9-yl)-N-hydroxyheptanamide]",158 nM,17.7,8.95 nM
"CC1(C)CC(=O)c2c(n(CCCCCCC(=O)NO)c3c(Cl)cc(Cl)cc23)C1 [Compound 51, 7-(1,3-dichloro-7,7-dimethyl-5-oxo-5,6,7,8-tetrahydrocarbazol-9-yl)-N-hydroxyheptanamide]",1330 nM,12.5,106 nM
"CC1(C)CC(=O)c2c(n(CCCCCCC(=O)NO)c3c(Br)cccc23)C1 [Compound 52, 7-(1-bromo-7,7-dimethyl-5-oxo-5,6,7,8-tetrahydrocarbazol-9-yl)-N-hydroxyheptanamide]",662 nM,27.7,23.9 nM
"CC1(C)CC(=O)c2c(n(Cc3ccc(C(=O)NO)cc3)c3cccc(Br)c23)C1 [Compound 53, 4-((5-bromo-2,2-dimethyl-4-oxo-1,2,3,4-tetrahydrocarbazol-9-yl)methyl)-N-hydroxybenzamide]",5760 nM,88.7,64.9 nM
"CC1(C)CC(=O)c2c(n(Cc3ccc(C(=O)NO)cc3)c3cc(Br)ccc23)C1 [Compound 54, 4-((7-bromo-2,2-dimethyl-4-oxo-1,2,3,4-tetrahydrocarbazol-9-yl)methyl)-N-hydroxybenzamide]",1470 nM,24.7,59.5 nM
"CC1(C)CC(=O)c2c(n(CCCCCCC(=O)NO)c3ccc(F)cc23)C1 [Compound 56, 7-(6-fluoro-2,2-dimethyl-4-oxo-1,2,3,4-tetrahydrocarbazol-9-yl)-N-hydroxyheptanamide]",242 nM,58.5,4.13 nM
"CC1(C)CC(=O)c2c(n(Cc3ccc(C(=O)NO)cc3)c3ccc(F)cc23)C1 [Compound 57, 4-((6-fluoro-2,2-dimethyl-4-oxo-1,2,3,4-tetrahydrocarbazol-9-yl)methyl)-N-hydroxybenzamide]",3770 nM,168.3,22.4 nM
"CC1(C)CC(=O)C2c3c(F)cccc3N(CCCCCC(=O)NO)C2C1 (stereo not drawn) [Compound 60, 6-(5-fluoro-2,2-dimethyl-4-oxo-2,3,4,4a-tetrahydro-1H-carbazol-9(9aH)-yl)-N-hydroxyhexanamide]",9180 nM,127.4,72 nM
"CC1(C)CC(=O)c2c(n(Cc3ccc(C(=O)NO)cc3)c3cc(F)c(F)cc23)C1 [Compound 71, 4-((6,7-difluoro-2,2-dimethyl-4-oxo-1,2,3,4-tetrahydrocarbazol-9-yl)methyl)-N-hydroxybenzamide]",4990 nM,37,134 nM
"CC1(C)CC(=O)c2c(n(CCCCCC(=O)NO)c3cc(F)c(F)cc23)C1 [Compound 72, 6-(6,7-difluoro-2,2-dimethyl-4-oxo-1,2,3,4-tetrahydrocarbazol-9-yl)-N-hydroxyhexanamide]",6060 nM,28.2,215 nM
"CC1(C)CC(=O)c2c(n(Cc3ccc(C(=O)NO)cc3)c3ccc(F)c(F)c23)C1 [Compound 73, 4-((5,6-difluoro-2,2-dimethyl-4-oxo-1,2,3,4-tetrahydrocarbazol-9-yl)methyl)-N-hydroxybenzamide]",3910 nM,52.1,75.1 nM
"CC1(C)CC(=O)c2c(n(CCCCCC(=O)NO)c3ccc(F)c(F)c23)C1 [Compound 74, 6-(5,6-difluoro-2,2-dimethyl-4-oxo-1,2,3,4-tetrahydrocarbazol-9-yl)-N-hydroxyhexanamide]",4720 nM,33.3,141 nM
"CC1(C)CC(=O)c2c(n(CCCCCC(=O)NO)c3cc(F)ccc23)C1 [Compound 76, 6-(7-fluoro-2,2-dimethyl-4-oxo-1,2,3,4-tetrahydrocarbazol-9-yl)-N-hydroxyhexanamide]",5230 nM,30.7,171 nM
"Cc1nccn1CC1CCc2c(c3ccccc3n2Cc2ccc(C(=O)NO)cc2)C1=O (stereo not drawn) [Compound 85, N-hydroxy-4-((3-((2-methyl-1H-imidazole-1-yl)methyl)-4-oxo-1,2,3,4-tetrahydrocarbazol-9-yl)methyl)benzamide]",2550 nM,225,11.3 nM
"O=C(NO)c1ccc(Cn2c3c(c4ccccc42)C(=O)C(CN2CCCCC2)CC3)cc1 (stereo not drawn) [Compound 86, N-hydroxy-4-((4-oxo-3-(piperidin-1-ylmethyl)-1,2,3,4-tetrahydrocarbazol-9-yl)methyl)benzamide]",2840 nM,286.1,9.94 nM

# From US20140315889A1, “HYDROXAMATE DERIVATIVES FOR HDAC INHIBITOR, AND THE PHARMACEUTICAL COMPOSITION COMPRISING THEREOF” (CHONG KUN DANG PHARMACEUTICAL CORP., priority 2011, published 2014)
